Source: ChEMBL document CHEMBL1122779, “Antiinflammatory agents. 3. Synthesis and pharmacological evaluation of 2-amino-3-benzoylphenylacetic acid and analogues” (J Med Chem, 1984)

What was measured:
Rattus norvegicus [1] = assay: Evaluated for chronic intestinal toxicity (multiple oral dose) in rats; format: organism-based; settings: in vivo
Cyclooxygenase = molecular target: T1, Cyclooxygenase (Bos taurus, UniProt O62664+O62698)
T1 sequence (O62664 whole entry): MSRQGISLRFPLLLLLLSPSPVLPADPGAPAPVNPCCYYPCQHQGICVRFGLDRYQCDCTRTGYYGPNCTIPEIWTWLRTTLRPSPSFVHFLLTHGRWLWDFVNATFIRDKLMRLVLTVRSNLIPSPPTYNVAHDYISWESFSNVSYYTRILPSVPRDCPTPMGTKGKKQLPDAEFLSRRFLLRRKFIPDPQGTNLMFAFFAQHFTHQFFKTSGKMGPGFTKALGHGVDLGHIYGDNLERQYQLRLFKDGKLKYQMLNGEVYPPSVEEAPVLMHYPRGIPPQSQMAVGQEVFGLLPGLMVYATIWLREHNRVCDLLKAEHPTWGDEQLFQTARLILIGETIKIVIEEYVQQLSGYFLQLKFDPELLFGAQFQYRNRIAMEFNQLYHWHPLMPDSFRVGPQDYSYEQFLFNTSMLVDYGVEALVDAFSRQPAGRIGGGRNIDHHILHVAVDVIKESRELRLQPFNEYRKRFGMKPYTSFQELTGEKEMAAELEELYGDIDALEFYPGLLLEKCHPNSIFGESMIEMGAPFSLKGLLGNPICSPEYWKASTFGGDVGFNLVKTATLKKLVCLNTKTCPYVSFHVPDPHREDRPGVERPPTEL
T1 sequence (O62698 whole entry): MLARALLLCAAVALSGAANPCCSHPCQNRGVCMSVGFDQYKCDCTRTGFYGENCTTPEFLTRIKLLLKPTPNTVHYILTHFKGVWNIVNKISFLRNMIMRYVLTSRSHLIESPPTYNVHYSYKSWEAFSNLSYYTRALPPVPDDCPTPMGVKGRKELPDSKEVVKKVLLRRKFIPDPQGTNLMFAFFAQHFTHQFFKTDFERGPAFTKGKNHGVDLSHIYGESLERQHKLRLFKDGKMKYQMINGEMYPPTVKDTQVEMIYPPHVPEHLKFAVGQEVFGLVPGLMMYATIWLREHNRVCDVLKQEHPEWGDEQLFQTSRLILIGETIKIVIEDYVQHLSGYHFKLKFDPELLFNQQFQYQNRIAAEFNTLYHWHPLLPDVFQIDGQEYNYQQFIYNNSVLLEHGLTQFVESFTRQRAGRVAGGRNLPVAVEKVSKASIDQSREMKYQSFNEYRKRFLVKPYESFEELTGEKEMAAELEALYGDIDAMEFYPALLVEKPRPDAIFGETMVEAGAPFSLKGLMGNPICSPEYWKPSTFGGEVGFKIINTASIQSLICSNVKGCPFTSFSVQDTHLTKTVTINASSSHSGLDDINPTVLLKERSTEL
Description: Inhibition of prostaglandin G/H synthase obtained from bovine seminal vesicles.

Mus musculus [2] = assay: Oral analgesic activity was determined in mice by the acetylcholine-induced abdominal constriction assay upon ip administration of acetylcholine bromide 20 min following oral administration; format: functional; settings: Abdomen
Rattus norvegicus [3] = assay: Percent change in average volume of pleural fluid at a dose of 4.0 mg/kg and 5-h response by Evans blue-carrageenan induced pleural effusion assay.; format: functional
Rattus norvegicus [4] = species: Rattus norvegicus; assay: Evaluated for chronic potency in adjuvant arthritis assay; format: functional
Rattus norvegicus [5] = assay: Percent change in average volume of pleural fluid at a dose 4 mg/kg of indomethacin and 5-h response is evaluated by Evans blue-carrageenan induced pleural effusion assay; format: functional
Rattus norvegicus [6] = species: Rattus norvegicus; assay: Evaluated for acute potency in pleural effusion assay; format: functional
[7] = Chronic therapeutic index as ratio of potency in adjuvant-induced arthritis assay to that of potency in intestinal toxicity assay; settings: read-out: Chronic TI
Rattus norvegicus [8] = assay: Percent change in avg. volume of pleural fluid at a dose of 0.16 mg/kg and 5-h response is evaluated by Evans blue-carrageenan induced pleural effusion assay
Mus musculus [9] = assay: Oral analgesic activity was determined in mice by the acetylcholine-induced abdominal constriction assay upon ip administration of acetylcholine bromide 5 hours following oral administration; format: functional; settings: Abdomen
[10] = Acute therapeutic index as ratio of potency in pleural effusion to that of potency in gastric toxicity assay; format: tissue-based; settings: Stomach; read-out: Acute TI
Rattus norvegicus [11] = assay: Acute gastric toxicity (single oral dose) in male fasted rats; format: organism-based, Stomach; settings: in vivo
Rattus norvegicus [12] = assay: Percent change in avg. volume of pleural fluid at a dose of 4.0 mg/kg and 5-h response is evaluated by Evans blue-carrageenan induced pleural effusion assay; format: functional
Rattus norvegicus [13] = assay: Percent change in average volume of pleural fluid at a dose of 100 mg/kg and 5-h response by Evans blue-carrageenan induced pleural effusion assay.; format: functional
Rattus norvegicus [14] = assay: Percent change in avg. volume of pleural fluid at a dose 4 mg/kg of indomethacin and 5-h response is evaluated by Evans blue-carrageenan induced pleural effusion assay; format: functional

Structure (SMILES)	Intestinal toxicity (Rattus norvegicus [1])	IC50 (Cyclooxygenase) [µM]	ED50 (Mus musculus [2]) [mg/kg]	Change (Rattus norvegicus [3]) [%]	Potency (Rattus norvegicus [4])	Change (Rattus norvegicus [5]) [%]	Potency (Rattus norvegicus [6])	selectivity ratio [7]	Change (Rattus norvegicus [8]) [%]	ED50 (Mus musculus [9]) [mg/kg]	selectivity ratio [10]	Gastric toxicity (Rattus norvegicus [11])	Change (Rattus norvegicus [12]) [%]	Change (Rattus norvegicus [13]) [%]	Change (Rattus norvegicus [14]) [%]
Nc1c(CC(=O)[O-])cc(Cl)cc1C(=O)c1ccc(Cl)cc1.[Na+]	1.2	0.3	0.23	-41	1.7	-32	4.6	1.4	-18	0.31	3.8	1.2			
Nc1cc(C(=O)c2ccccc2)ccc1CC(=O)[O-].[Na+]													-31	-2	
Nc1c(CC(=O)[O-])cc(Cl)cc1C(=O)c1ccc(I)cc1.[Na+]	2.2	0.03	0.24	-35	5.5	-33	3.8	2.5		0.24	1.1	3.5		-38	
Nc1c(CC(=O)[O-])cccc1C(=O)c1ccc(Cl)cc1Cl.[Na+]	0.6	0.6	0.21	-37	4.2	-33	5.3		-16	> 0.3		1		-41	
Cc1cc(CC(=O)[O-])c(N)c(C(=O)c2ccc(Cl)cc2)c1.[Na+]	0.4	0.7	0.78	-32	0.63	-35	1.7		0	0.65		0.27		-38	
Nc1c(CC(=O)[O-])cc(Cl)cc1C(=O)c1ccc(Br)cc1.[Na+]	2.9	0.02	0.05	-41	4.6	-40	15	1.6		0.13	10	1.5		-38	
Nc1ccc(CC(=O)O)cc1C(=O)c1ccccc1				-4											-31
Nc1c(CC(=O)[O-])cccc1C(=O)c1ccc(Cl)cc1.[Na+]	1.4	0.3	0.1	-29	2.2	-33	3.8	1.6	-16	0.93	4.3	0.9		-38	
Nc1ccc(C(=O)c2ccccc2)cc1CC(=O)O						-43							11		
Nc1c(CC(=O)[O-])cc(F)cc1C(=O)c1ccc(Br)cc1.[Na+]	1.9	0.04	0.18	-28	2.2	-25	8.4	1.2		0.29	4.9	1.7		-28	
Nc1c(CC(=O)[O-])cccc1C(=O)c1ccc(I)cc1.[Na+]	3.3	0.07	0.13	-31	8.1	-32	6.9	2.5	-17	0.18	1.3	5.3		-44	
Nc1c(CC(=O)[O-])cc(F)cc1C(=O)c1ccc(Cl)cc1.[Na+]	0.5	0.1	0.28	-37	1.9	-34	3.6		-15	1.4		1.1			
Nc1cccc(C(=O)c2ccccc2)c1CC(=O)[O-].[Na+]				-2											-35
COc1cc(CC(=O)[O-])c(N)c(C(=O)c2ccccc2)c1.[Na+]		5.4		-18											-48
Nc1c(CC(=O)[O-])cccc1C(=O)c1ccccc1.[Na+] [AMFENAC SODIUM]	0.4		0.11	-26	1.1	-33	0.7		-13	> 3		0.7		-35	
Nc1c(CC(=O)[O-])cccc1C(=O)c1ccc(Br)cc1.Nc1c(CC(=O)[O-])cccc1C(=O)c1ccc(Br)cc1.O.O.O.[Na+].[Na+] [BROMFENAC SODIUM]	1.8	0.08	0.07	-43	5.8	-41	7.5	3.2	-27	0.13	5.4	1.4			
COc1ccc2c(c1)c(CC(=O)O)c(C)n2C(=O)c1ccc(Cl)cc1 [INDOMETHACIN]	1		0.22	-33	1		1		-7	0.22		1			
Cc1cc(CC(=O)O)n(C)c1C(=O)c1ccc(Cl)cc1 [ZOMEPIRAC]	0.63	15	0.21		0.67		0.78	1.1		0.59	3.1	0.25			
